Results reported in patent US8481514B2, “Therapeutical uses of inecalcitol” (Hybrigenics SA, priority 2009, dated 2013).

What was measured:
[1] = Dose finding and clinical tolerance study of inecalcitol with docetaxel-prednisone in HRPC patients (safety); format: in vivo, human; conditions: for adverse events related to the drug: attribution of the AEs seen under the combination
Procedure: Escalating oral dosages of inecalcitol were combined to chemotherapy in naive HRPC patients. Safety was evaluated in groups of 3-6 patients receiving inecalcitol every other day (qod) or daily (qd) on a 21-day cycle in combination with intravenous docetaxel (75 mg/m2 q3w) and oral prednisone (5 mg bid). Patients (pts) received up to six cycles unless unacceptable toxicity or disease progression. Primary endpoint was dose limiting toxicity (DLT) defined as grade 3 hypercalcemia within the first cycle. Calcemia, creatininemia and complete blood counts were assessed weekly; biochemistry, electrocardiogram and prostate specific antigen (PSA) every 3 weeks. Efficacy endpoint was PSA response defined as ≧30% decline within 3 months.
(§1) Inecalcitol was given to patients in soft gelatine capsules of different sizes, shapes and strengths depending on the dose level studied: one, two or four 40 μg capsules (size 11, oblong shape) for administration of 40, 80 or 160 μg/day, respectively; three or six 100 μg capsules (size 4, round shape) for administration of 300 or 600 μg/day, respectively; five 200 μg capsules (size 7.5, oval shape) for administration of 1,000 μg/day; five 400 μg capsules (size 14, oblong shape) for administration of 2 mg/day, and four 1 mg capsules (size 14, oblong shape) for administration of 4 mg/day. In all the capsules, inecalcitol was present in the fill content as a solution in medium chain triglycerides from fractionated coconut oil at different concentrations depending on the capsule strengths.

[2] = Eelen et al. 2005; Verlinden et al. 2001; cited from earlier work
[3] = system: human breast cancer cells; conditions: in vitro and in vivo; Verlinden et al. 2000; cited from earlier work
[4] = 2-week toxicology study of twice-a-day oral inecalcitol in monkeys (calcemia, toxicity); format: in vivo, cynomolgus monkeys; conditions: for plasma calcium level (mean±s.e.m.): same 4 animals
Procedure: (§2) On FIG. 2, mean plasma concentrations of inecalcitol are plotted vs. time on the first day of treatment with two successive administrations of inecalcitol around 8 AM and 7 PM, i.e. about 11 hours apart. […] In both instances, inecalcitol levels returned to basal levels within 4 hours. In the table below, plasma calcium levels (in mmoles/L, mean±s.e.m.) were monitored in the same 4 animals for two weeks before and for two weeks during the treatment period.

[5] = Pharmacokinetics of oral inecalcitol in HRPC patients (LC/MS/MS of plasma); format: in vivo; conditions: human patients
Procedure: as §1
Inecalcitol was assayed as unchanged circulating compound in the plasma by liquid chromatography followed by tandem mass spectrometry (LC/MS/MS). […] At 600 μg and 1000 μg, mean peak values reached around 35 and 45 pg/ml (0.035 and 0.045 ng/ml) at 90 and 45 minutes, respectively.

[6] = 9-month toxicokinetic study of once-a-day oral inecalcitol in monkeys (plasma concentrations); format: in vivo; conditions: male mature monkeys, day 1 and day 272
Procedure: FIG. 1 illustrates the mean plasma concentrations vs time obtained during a 9-month toxicology study on once-a-day oral inecalcitol performed in male mature monkeys.
(§3) On FIG. 1, mean plasma concentrations of inecalcitol are plotted vs. time on the first day of the study and close to its end, at day 272. The mean toxicokinetic profiles are almost superimposable, with a mean peak of about 1.2 ng/ml achieved as soon as 15 minutes after oral intake, and a steady disappearance from circulation within 4 hours.

[7] = 9-month toxicology study of once-a-day oral inecalcitol in monkeys (calcemia, toxicity); format: in vivo
Procedure: as §3

[8] = Eelen et al. 2005; Verlinden et al. 2001; cited from earlier work; remark: listed apart in the source
[9] = 2-week toxicokinetic study of twice-a-day oral inecalcitol in monkeys (plasma concentrations); format: in vivo, cynomolgus monkeys; conditions: first day of treatment
Procedure: FIG. 2 illustrates the mean plasma concentrations vs time obtained during a 2-week toxicology study on twice-a-day oral inecalcitol performed in male juvenile monkeys.
as §2

[10] = male juvenile cynomolgus monkeys, twice daily oral, 2×1.6 mg each day, 2 weeks
[11] = 50 pts treated, inecalcitol with docetaxel and prednisone
[12] = HRPC patients, oral 300 μg, 600 μg, 1000 μg (qod,qd), 2 mg (qd) or 4 mg (qd)
[13] = male mature cynomolgus monkeys, daily oral, 9 months, up to highest tested dose 1.8 mg per day per monkey

In the case of CC(=O)O[C@@]12CO[C@@H]1C[C@H](O)[C@@]1(C)C(=O)[C@H](O)C3=C(C)[C@@H](OC(=O)[C@H](O)[C@@H](NC(=O)OC(C)(C)C)c4ccccc4)C[C@@](O)([C@@H](OC(=O)c4ccccc4)[C@H]21)C3(C)C [docetaxel, reference compound], the “adverse events related to the drug” value [1] is reported as “All these AEs”.

In the case of C[C@H](CC#CC(C)(C)O)[C@H]1CC[C@@H]2/C(=C/C=C3C[C@@H](O)C[C@H](O)C3)CCC[C@@]21C [inecalcitol, 19-nor-9,10-seco-14βH-cholesta-5(Z),7(E)-dien-23-ino-1α,3β,25-triol-23-yne], the “calcemic effects compared with calcitriol” value [2] is listed as “markedly lower”, the “activity on growth of human breast cancer cells” value [3] is listed as “inhibiting the growth” and the hypercalcemia [4, 10] is listed as “no hypercalcemia”. The toxic effects [4, 10] was “no toxic effects”, the “plasma calcium level (mean±s.e.m.)” value ([4]; Day 7 of treatment, 2×1.6 mg each day) was 2.68 ± 0.15 mmol/L and the “plasma calcium level (mean±s.e.m.)” value ([4]; Day 13 of treatment, 2×1.6 mg each day) was 2.76 ± 0.12 mmol/L. For the same molecule, the “plasma calcium level (mean±s.e.m.)” value ([4]; Day −6 (before treatment)) was 2.61 ± 0.06 mmol/L, the “plasma calcium level (mean±s.e.m.)” value ([4]; Day −13 (before treatment)) was 2.66 ± 0.088 mmol/L and the “changes in plasma calcium” value ([4]; two weeks before vs two weeks during treatment) was “No significant changes”. The peak plasma values ([5]; oral 300 μg, lower limit of quantitation 10 pg/ml) was “barely detectable above the lower limit of quantitation”, the “time of mean peak value” ([5]; oral 600 μg) was 90 min and the “time of mean peak value” ([5]; oral 1000 μg) was 45 min. The “time of mean peak value” ([5]; oral 2 mg) was 90 min, the “time of mean peak value” ([5]; oral 4 mg) was 45 min and the half-life ([5]; male, plasma, four mean profiles between 600 μg and 4 mg oral, read-out: approximate half-life) was 1 to 1.5 h. For the same molecule, the “mean peak plasma concentration” value ([6]; 1.8 mg per day) was “about 1.2 ng/ml”, the disappearance from circulation [6] was no more than 4 h and the “time of mean peak after oral intake” value [6] was 15 min. The “G1-2 adverse event: asthenia” value [1, 11] was 22 pts, the “G1-2 adverse event: constipation” value [1, 11] was 15 pts and the “G1-2 adverse event: diarrhea” value [1, 11] was 13 pts. The “G3-4 AE: arrhythmia” value [1, 11] was 2 pts, the “G3-4 AE: asthenia” value [1, 11] was 3 pts and the “G3-4 AE: diarrhea” value [1, 11] was 1 pt. For the same molecule, the “G3-4 AE: general health deterioration” value [1, 11] was 3 pts, the “G3-4 AE: lymphopenia” value [1, 11] was 12 pts and the “G3-4 AE: neutropenia” value [1, 11] was 36 pts. The increased calcemia ([1]; HRPC patients, oral 40 μg to 4 mg qod or qd, with docetaxel and prednisone, 50 pts treated) was “No increased calcemia”, the hypercalcemia [1, 12] was “did not induce any hypercalcemia” and the toxic effect [1, 12] was “did not induce any hypercalcemia or any toxic effect”. The “adverse events related to the drug” value [1] was “none”, the maximal tolerated dose ([7]; 9-month daily oral, highest tested dose 1.8 mg per day per monkey) was “has not been reached” and the “difference in plasma calcium levels between control and treated monkeys” value ([7]; different time points during the 9-month study) was “did not show any difference”. For the same molecule, the hypercalcemia [7, 13] was “no hypercalcemia”, the toxic effects [7, 13] was “no toxic effects” and the “plasma calcium level (mean±s.e.m.)” value ([7]; treated monkeys n = 6, Day 85) was 2.53 ± 0.03 mmol/L. The “plasma calcium level (mean±s.e.m.)” value ([7]; treated monkeys n = 6, Day 175) was 2.49 ± 0.05 mmol/L, the “plasma calcium level (mean±s.e.m.)” value ([7]; treated monkeys n = 6, Day 268) was 2.51 ± 0.05 mmol/L and the “plasma calcium level (mean±s.e.m.)” value ([7]; treated monkeys n = 6, Day −12 (before treatment)) was 2.54 ± 0.11 mmol/L. The “antiproliferative effects compared with calcitriol” value [8] was “enhanced”, the “return of inecalcitol levels to basal levels” value ([9]; after each of the two administrations) was no more than 4 h and the “peak mean plasma concentration, second administration” value ([9]; male juvenile monkeys, 1.6 mg oral around 7 PM) was 2.50 ng/mL. For the same molecule, the “peak mean plasma concentration, first administration” value ([9]; male juvenile monkeys, 1.6 mg oral around 8 AM) was 2.75 ng/mL.
